The test system of one data set is NucS. It is filed as biochemical, Streptomyces sp. MBE174. On the procedure: (§1) In this case, 1 U represents an amount of enzymes necessary to increase the absorbancy of 260 nm by one for 30 minutes when the enzymes works on the following as substrate: Salmon sperm DNA 1 mg/mL (manufactured by Invitrogen; Cat no. 15632-011).
(§2) NucS and NucL were kept in contact with the compounds listed in Table 3 on an ice bath for one hour, and then, the enzyme activity was measured by the standard specific activity measurement method (referring to Table 3). […] Incidentally, poorly water-soluble compounds were dissolved in dimethyl sulfoxide, and then added to an enzyme solution. The final concentration of dimethyl sulfoxide after addition was 5 percent. The activity in the presence of 5 percent of dimethyl sulfoxide was regarded as being 100 percent.

The subject of the next data set is NucL. It is filed as biochemical, Streptomyces sp. MBE174. As to conditions: for effect of the chemical substance on NucL activity (in words): summary of Table 3. On the procedure:
as §1, §2

The next data set deals with Salmon sperm DNA. The experiment in a line: standard specific activity measurement method (increase of absorbancy at 260 nm). It is filed as biochemical. As to conditions: fraction after each purification step of NucS (Table 1). How it is done:
The specific activity of NucS was measured at 37 degrees Celsius in 20 mM of Tris/HCl at pH 8.5 that contains 1 mM of MgCl2 and 1 mM of CaCl2 (a measurement method under the condition described here is also referred to as a standard specific activity measurement method, hereinafter); the specific activity was 3.6×10^6 U/mg-protein, which was a very high level of specific activity. In this case, 1 U represents an amount of enzymes necessary to increase the absorbancy of 260 nm by one for 30 minutes when the enzymes works on the following as substrate: Salmon sperm DNA 1 mg/mL (manufactured by Invitrogen; Cat no. 15632-011). As a reference, as for NucS, when the specific activity of Benzonase (Registered Trademark), which was a commercially available nucleolytic enzyme that had the highest specific activity among those listed in a brochure, was measured under the conditions described in the brochure (37 degrees Celsius) with the use of the same substrate; the specific activity was 9.4×10^5 U/mg-protein. As a result, it became clear that the specific activity of NucS is about 3.8 times higher than that of Benzonase.
The specific activity of NucL was 5.6×10^4 U/mg-protein at 37 degrees Celsius in 20 mM of Tris/HCl at pH 8.5 that contains 1 mM of MgCl2 and 1 mM of CaCl2. The isoelectric point was measured by using Novex (Registered Trademark) IEF pH-3-10 gel (manufactured by Invitrogen); and then pl was 7.0. Then, it was determined that a N-terminal amino acid sequence of the purified enzyme was DSVRIHDIQGTTR. The sequence matched 12 out of 13 amino acids of putative protein (putative secreted hydrolase) coded on a genome of Streptomyces scabiei 87.22, and of putative protein (large secreted protein) coded on a genome of S. avermitilis MA-4680.

Setting [1] is: chemical at 1.0 mM, contact on ice bath one hour, additive-free = 100.
[2] abbreviates: chemical at 5.0 mM, contact on ice bath one hour, additive-free = 100.
[3] abbreviates: chemical at 0.1 mM, contact on ice bath one hour, additive-free = 100.
[4] abbreviates: chemical at 1.0%, contact on ice bath one hour, additive-free = 100.
The mark [5] stands for this setting: chemical at 10.0%, contact on ice bath one hour, additive-free = 100.
Where [6] appears, read: chemical at 20.0%, contact on ice bath one hour, additive-free = 100.
Where [7] appears, read: chemical at 0.1%, contact on ice bath one hour, additive-free = 100.
Where [8] appears, read: chemical at 2.0M, contact on ice bath one hour, additive-free = 100.
Where [9] appears, read: chemical at 4.0M, contact on ice bath one hour, additive-free = 100.
Where [10] appears, read: chemical at 6.0M, contact on ice bath one hour, additive-free = 100.

“And” between values parts separate entries of the source, which are not always exact repeats. Equal entries are not always repeated. Where two headings read alike, the source gives them in different places.

As for `O[C@H](CS)[C@H](O)CS` (racemic) [Dithiothreitol], the “Relative activity of NucS (%)” value stood at 105% in the data set with NucS (setting [1]) and 104% with NucS (setting [2]). The “Relative activity of NucL (%)” value in the data set with NucL (setting [1]) and with NucL (setting [2]) was 89% throughout.
Regarding `[Cl][Cu][Cl]` [CuCl2], the “Relative activity of NucS (%)” value came out at 111% in the data set with NucS (setting [3]) and 3% with NucS (setting [1]). Besides, the “effect of the chemical substance on NucS activity (in words)” value (from here on “effect … on NucS activity (in words)”) in the data set on NucS (summary of Table 3) is on record as “strongly inhibited”. Also, the “Relative activity of NucL (%)” value is recorded as 96% in the data set on NucL (setting [3]) and 9% in the data set on NucL (setting [1]). In addition, the “effect of the chemical substance on NucL activity (in words)” value (shortened to “effect … on NucL activity (in words)”) in the data set on NucL was “strongly inhibited”.
`CN(C)C=O` [Dimethyl formamide]: the figures for the “Relative activity of NucS (%)” value with NucS (setting [4]), in the data set with NucS (setting [5]) and with NucS (setting [6]) were 91%, 118% and 117%, respectively. The “effect … on NucS activity (in words)” value in the data set with NucS (summary of Table 3) was “high resistance”. The “Relative activity of NucL (%)” value with NucL (setting [4]) was 99%; in the data set on NucL (setting [5]), 74%; in the data set on NucL (setting [6]) it was 56%.
For `C[S+](C)[O-]` [Dimethyl sulfoxide], the “Relative activity of NucS (%)” value came out at 110% in the data set on NucS (setting [4]), 116% with NucS (setting [5]) and 113% with NucS (setting [6]). Moreover, in the data set with NucS (summary of Table 3), the “effect … on NucS activity (in words)” value was “high resistance”. The “Relative activity of NucL (%)” value in the data set on NucL (setting [4]) is listed as 105%; in the data set on NucL (setting [5]) it was 75%; in the data set with NucL (setting [6]), 40%.
Regarding `O=C(O)CN(CCN(CC(=O)O)CC(=O)O)CC(=O)O` [Ethylenediaminetetraacetic acid], in the data set with NucS, the “Relative activity of NucS (%)” value was 0% and the “effect … on NucS activity (in words)” value was “strongly inhibited”. Also, the “Relative activity of NucL (%)” value in the data set on NucL (setting [2]) is recorded as 0%. In addition, the “Relative activity of NucL (%)” value in the data set with NucL (chemical at 10.0 mM, contact on ice bath one hour, additive-free = 100) was 0%. For the same compound, in the data set on NucL, the “effect … on NucL activity (in words)” value is listed as “strongly inhibited”.
Turning to `O=C(O)CI` [Iodoacetic acid], the “Relative activity of NucS (%)” value in the data set with NucS was 103% and 96%. Further, the “Relative activity of NucL (%)” value with NucL was 102% and 97%.
For `OCCS` [Melcaptoethanol], the “Relative activity of NucS (%)” value in the data set on NucS (setting [1]) turned out to be 112%; in the data set with NucS (setting [2]), 116%. Further, the “Relative activity of NucL (%)” value in the data set with NucL (setting [1]) was 89%; in the data set with NucL (setting [2]) it was 92%.
With `O=C(O)c1cc[c]([Hg][Cl])cc1` [Parachloro mercury benzoate], the “Relative activity of NucS (%)” value was 92% in the data set with NucS (setting [3]) and 94% in the data set with NucS (setting [1]). The “Relative activity of NucL (%)” value is on record as 108% in the data set with NucL (setting [3]) and 91% in the data set on NucL (setting [1]).
Take `O=S(=O)(F)Cc1ccccc1` [Phenylmethanesulfonyl fluoride]: the “Relative activity of NucS (%)” value in the data set with NucS (setting [1]) came to 85%; in the data set on NucS (setting [2]) it was 87%. Besides, the results for the “Relative activity of NucL (%)” value in the data set on NucL (setting [1]) and in the data set with NucL (setting [2]) were 111% and 99%, respectively.
Turning to `CCCCCCCCCCCCOS(=O)(=O)[O-].[Na+]` [SDS], the “Relative activity of NucS (%)” value in the data set with NucS (setting [7]) is 85%; in the data set with NucS (setting [4]), 0%. The “Relative activity of NucL (%)” value in the data set with NucL (setting [7]) worked out at 89%; in the data set with NucL (setting [4]), 121%. Also, the “effect … on NucL activity (in words)” value in the data set with NucL is “high resistance”.
Turning to `NC(N)=O` [Urea], the “Relative activity of NucS (%)” value is given as 125% with NucS (setting [8]), 126% with NucS (setting [9]) and 92% in the data set with NucS (setting [10]). The “Relative activity of NucL (%)” value in the data set with NucL (setting [8]) stood at 64%; in the data set on NucL (setting [9]), 55%; with NucL (setting [10]), 43%.
With `[Cl-].[Cl-].[Zn+2]` [ZnCl2], the “Relative activity of NucS (%)” value with NucS (setting [3]) worked out at 3%; in the data set with NucS (setting [1]), 0%. The “effect … on NucS activity (in words)” value with NucS (summary of Table 3) is on record as “strongly inhibited”. Besides, the results for the “Relative activity of NucL (%)” value in the data set with NucL (setting [3]) and in the data set with NucL (setting [1]) were 1% and 0%, respectively. In the data set on NucL, the “effect … on NucL activity (in words)” value is reported as “strongly inhibited”.
In the case of Hydroxyapatite, in the data set on Salmon sperm DNA, the “Specific activity (U/mg)” value was determined as 38596 U/mg.
On to Triton X, for which the “Relative activity of NucS (%)” value in the data set with NucS (setting [7]) is 115%; in the data set with NucS (setting [4]), 108%. For the same compound, the “Relative activity of NucL (%)” value is 137% in the data set on NucL (setting [7]) and 128% in the data set with NucL (setting [4]).

These data come from patent US9217139B2, “Extracellularly secreted nuclease” (JAPAN AGENCY FOR MARINE-EARTH SCIENCE AND TECHNOLOGY, priority 2010, dated 2015).
